Laboratory results: ChEMBL document CHEMBL1909046, “DrugMatrix in vitro pharmacology data”

Tests used:
B2 bradykinin receptor = molecular target: T1, B2 bradykinin receptor (Homo sapiens, UniProt P30411); type: cell membranes, Membrane; conditions: chem-1; further: in other assays of this panel Not Active means under 50% inhibition at 10 µM
T1 sequence (P30411 whole entry): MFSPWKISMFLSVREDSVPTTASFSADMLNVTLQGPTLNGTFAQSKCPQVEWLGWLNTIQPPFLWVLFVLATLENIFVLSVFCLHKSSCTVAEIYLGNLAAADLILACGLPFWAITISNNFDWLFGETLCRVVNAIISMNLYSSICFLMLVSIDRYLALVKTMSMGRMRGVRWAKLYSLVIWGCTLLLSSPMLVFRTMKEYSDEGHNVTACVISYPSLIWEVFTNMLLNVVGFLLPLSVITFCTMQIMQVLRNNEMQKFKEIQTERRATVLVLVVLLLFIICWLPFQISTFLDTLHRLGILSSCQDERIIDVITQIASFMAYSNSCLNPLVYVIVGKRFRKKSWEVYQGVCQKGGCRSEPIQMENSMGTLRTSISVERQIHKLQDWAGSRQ

[1] = molecular target: T2, C-X-C chemokine receptor type 1 (Homo sapiens, UniProt P25024); further: in other assays of this panel Not Active means under 50% inhibition at 10 µM
T2 sequence (P25024 whole entry): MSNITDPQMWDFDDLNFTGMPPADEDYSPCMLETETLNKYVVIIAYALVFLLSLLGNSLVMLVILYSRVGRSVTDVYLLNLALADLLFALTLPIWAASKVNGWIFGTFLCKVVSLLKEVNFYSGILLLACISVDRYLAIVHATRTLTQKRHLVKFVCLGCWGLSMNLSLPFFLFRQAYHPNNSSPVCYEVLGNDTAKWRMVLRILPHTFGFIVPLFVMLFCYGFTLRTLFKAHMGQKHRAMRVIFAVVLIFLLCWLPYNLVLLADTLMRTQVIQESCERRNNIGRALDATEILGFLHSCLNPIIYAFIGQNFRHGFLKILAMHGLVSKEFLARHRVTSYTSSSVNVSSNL

[2] = DRUGMATRIX: Glutamate, NMDA, Phencyclidine radioligand binding (ligand: [3H] TCP); type: cell membranes, Rattus norvegicus, Wistar, Cerebral cortex, Membrane; conditions: Not Active = under 50% inhibition at 10 µM
D(3) dopamine receptor = D(3) dopamine receptor (Homo sapiens, UniProt P35462); assay: DRUGMATRIX: Dopamine D3 radioligand binding (ligand: [3H] Spiperone); type: cell membranes, CHO, Membrane; conditions: cho
D(4) dopamine receptor = molecular target: T3, D(4) dopamine receptor (Homo sapiens, UniProt P21917); assay: DRUGMATRIX: Dopamine D4.2 radioligand binding (ligand: [3H] Spiperone); type: cell membranes, Membrane; conditions: cho-k1; Not Active = under 50% inhibition at 10 µM
T3 sequence (P21917 whole entry): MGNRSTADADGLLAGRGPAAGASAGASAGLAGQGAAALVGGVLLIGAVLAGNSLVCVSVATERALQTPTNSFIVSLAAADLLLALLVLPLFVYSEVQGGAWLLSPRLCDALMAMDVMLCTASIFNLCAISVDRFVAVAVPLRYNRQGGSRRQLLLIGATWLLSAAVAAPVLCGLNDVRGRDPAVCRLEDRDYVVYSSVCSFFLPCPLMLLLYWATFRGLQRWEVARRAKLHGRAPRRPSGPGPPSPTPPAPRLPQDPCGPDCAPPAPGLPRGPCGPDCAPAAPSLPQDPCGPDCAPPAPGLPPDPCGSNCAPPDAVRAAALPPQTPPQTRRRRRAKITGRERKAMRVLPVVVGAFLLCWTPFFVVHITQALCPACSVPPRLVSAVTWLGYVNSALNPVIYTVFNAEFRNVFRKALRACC

[3] = DRUGMATRIX: beta-Lactamase enzyme inhibition (substrate: Nitrocefin); parameters: species or system Bacillus cereus; conditions: Not Active = under 50% inhibition at 10 µM
[4] = molecular target: Beta-2 adrenergic receptor (Homo sapiens, UniProt P07550); assay: DRUGMATRIX: Adrenergic beta2 radioligand binding (ligand: [3H] CGP-12177); type: cell membranes, Membrane; conditions: cho; Not Active = under 50% inhibition at 10 µM
Beta-2 adrenergic receptor, sequence (P07550 whole entry): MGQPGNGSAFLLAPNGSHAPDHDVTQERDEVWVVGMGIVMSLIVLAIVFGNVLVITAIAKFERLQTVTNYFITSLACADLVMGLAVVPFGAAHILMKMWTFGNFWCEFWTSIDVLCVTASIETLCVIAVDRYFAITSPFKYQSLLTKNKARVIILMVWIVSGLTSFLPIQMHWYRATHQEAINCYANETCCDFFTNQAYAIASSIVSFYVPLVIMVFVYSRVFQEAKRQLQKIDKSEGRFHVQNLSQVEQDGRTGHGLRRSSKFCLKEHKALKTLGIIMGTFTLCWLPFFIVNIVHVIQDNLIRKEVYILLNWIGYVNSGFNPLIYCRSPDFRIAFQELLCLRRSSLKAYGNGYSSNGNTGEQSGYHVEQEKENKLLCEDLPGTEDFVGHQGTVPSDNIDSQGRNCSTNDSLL

D(3) dopamine receptor, sequence (P35462 whole entry): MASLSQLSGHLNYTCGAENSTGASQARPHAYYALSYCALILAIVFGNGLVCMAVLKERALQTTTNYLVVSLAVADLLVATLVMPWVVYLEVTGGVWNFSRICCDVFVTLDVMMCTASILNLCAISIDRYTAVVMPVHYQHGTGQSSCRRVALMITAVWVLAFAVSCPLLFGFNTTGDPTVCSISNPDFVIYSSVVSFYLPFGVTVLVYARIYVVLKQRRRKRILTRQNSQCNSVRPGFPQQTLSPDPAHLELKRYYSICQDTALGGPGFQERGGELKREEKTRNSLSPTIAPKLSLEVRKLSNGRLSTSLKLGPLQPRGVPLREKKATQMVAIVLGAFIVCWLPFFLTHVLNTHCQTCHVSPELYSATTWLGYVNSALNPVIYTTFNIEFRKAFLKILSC

CC(C)(Oc1ccc(C2CCCc3ccccc32)cc1)C(=O)O (configuration not stated) [NAFENOPIN]
Not Active: IC50 (B2 bradykinin receptor) | IC50 [1] | IC50 [2] | Ki [2] | IC50 (D(3) dopamine receptor) | IC50 (D(4) dopamine receptor) | IC50 [3] | Ki [3] | IC50 [4]

COc1ccc2cc([C@H](C)C(=O)O)ccc2c1 [NAPROXEN]
Not Active: IC50 (B2 bradykinin receptor) | IC50 [1] | IC50 [2] | Ki [2] | IC50 (D(3) dopamine receptor) | IC50 (D(4) dopamine receptor) | IC50 [3] | Ki [3] | IC50 [4]

CC(C)[C@H]1CC[C@H](C(=O)N[C@H](Cc2ccccc2)C(=O)O)CC1 [NATEGLINIDE]
Not Active: IC50 (B2 bradykinin receptor) | IC50 [1] | IC50 [2] | Ki [2] | IC50 (D(3) dopamine receptor) | IC50 (D(4) dopamine receptor) | IC50 [3] | Ki [3] | IC50 [4]

CCN[C@@H]1C[C@H](N)[C@@H](O[C@H]2OC(CN)=CC[C@H]2N)[C@H](O)[C@H]1O[C@H]1OC[C@](C)(O)[C@H](NC)[C@H]1O [NETILMICIN]
Not Active: IC50 (B2 bradykinin receptor) | IC50 [1] | IC50 [2] | Ki [2] | IC50 (D(3) dopamine receptor) | IC50 (D(4) dopamine receptor) | IC50 [3] | Ki [3] | IC50 [4]

COC(=O)C1=C(C)NC(C)=C(C(=O)OCC(C)C)C1c1ccccc1[N+](=O)[O-] (configuration not stated) [NISOLDIPINE]
Not Active: IC50 (B2 bradykinin receptor) | IC50 [1] | IC50 [2] | Ki [2] | IC50 (D(3) dopamine receptor) | IC50 (D(4) dopamine receptor) | IC50 [3] | Ki [3] | IC50 [4]

CCOC(=O)C1=C(C)NC(C)=C(C(=O)OC)C1c1cccc([N+](=O)[O-])c1 (configuration not stated) [NITRENDIPINE]
Not Active: IC50 (B2 bradykinin receptor) | IC50 [1] | IC50 [2] | Ki [2] | IC50 (D(3) dopamine receptor) | IC50 (D(4) dopamine receptor) | IC50 [3] | Ki [3] | IC50 [4]

C#C[C@]1(OC(C)=O)CC[C@H]2[C@@H]3CCC4=CC(=O)CC[C@@H]4[C@H]3CC[C@@]21C [NORETHINDRONE ACETATE]
Not Active: IC50 (B2 bradykinin receptor) | IC50 [1] | IC50 [2] | Ki [2] | IC50 (D(3) dopamine receptor) | IC50 (D(4) dopamine receptor) | IC50 [3] | Ki [3] | IC50 [4]

COc1ccc2[nH]c([S+]([O-])Cc3ncc(C)c(OC)c3C)nc2c1 (configuration not stated) [OMEPRAZOLE]
Not Active: IC50 (B2 bradykinin receptor) | IC50 [1] | IC50 [2] | Ki [2] | IC50 (D(3) dopamine receptor) | IC50 (D(4) dopamine receptor) | IC50 [3] | Ki [3] | IC50 [4]

Cc1nccn1CC1CCc2c(c3ccccc3n2C)C1=O (configuration not stated) [ONDANSETRON]
Not Active: IC50 (B2 bradykinin receptor) | IC50 [1] | IC50 [2] | Ki [2] | IC50 (D(3) dopamine receptor) | IC50 (D(4) dopamine receptor) | IC50 [3] | Ki [3] | IC50 [4]

CCn1cc(C(=O)O)c(=O)c2cc(F)c(N3CCN(C)CC3)cc21 [PEFLOXACIN]
Not Active: IC50 (B2 bradykinin receptor) | IC50 [1] | IC50 [2] | Ki [2] | IC50 (D(3) dopamine receptor) | IC50 (D(4) dopamine receptor) | IC50 [3] | Ki [3] | IC50 [4]

CCCCOc1ccc(OCCCN2CCOCC2)cc1 [PRAMOXINE]
Not Active: IC50 (B2 bradykinin receptor) | IC50 [1] | IC50 [2] | Ki [2] | IC50 (D(3) dopamine receptor) | IC50 (D(4) dopamine receptor) | IC50 [3] | Ki [3] | IC50 [4]

O=C(C1CCCCC1)N1CC(=O)N2CCc3ccccc3C2C1 (configuration not stated) [PRAZIQUANTEL]
Not Active: IC50 (B2 bradykinin receptor) | IC50 [1] | IC50 [2] | Ki [2] | IC50 (D(3) dopamine receptor) | IC50 (D(4) dopamine receptor) | IC50 [3] | Ki [3] | IC50 [4]

CCN(CC)CCOC(=O)c1ccc(N)cc1 [PROCAINE]
Not Active: IC50 (B2 bradykinin receptor) | IC50 [1] | IC50 [2] | Ki [2] | IC50 (D(3) dopamine receptor) | IC50 (D(4) dopamine receptor) | IC50 [3] | Ki [3] | IC50 [4]

CCCN(CCC)C(=O)C(CCC(=O)O)NC(=O)c1ccccc1 (configuration not stated) [PROGLUMIDE]
Not Active: IC50 (B2 bradykinin receptor) | IC50 [1] | IC50 [2] | Ki [2] | IC50 (D(3) dopamine receptor) | IC50 (D(4) dopamine receptor) | IC50 [3] | Ki [3] | IC50 [4]

NC(=O)c1cnccn1 [PYRAZINAMIDE]
Not Active: IC50 (B2 bradykinin receptor) | IC50 [1] | IC50 [2] | Ki [2] | IC50 (D(3) dopamine receptor) | IC50 (D(4) dopamine receptor) | IC50 [3] | Ki [3] | IC50 [4]

OC(CCN1CCCCC1)(c1ccccc1)C1CCCCC1 (configuration not stated) [TRIHEXYPHENIDYL]
Not Active: IC50 (B2 bradykinin receptor) | IC50 [1] | IC50 [2] | Ki [2] | IC50 (D(3) dopamine receptor) | IC50 (D(4) dopamine receptor) | IC50 [3] | Ki [3] | IC50 [4]

Cc1cc2cc3c(C)cc(=O)oc3c(C)c2o1 [TRIOXSALEN]
Not Active: IC50 (B2 bradykinin receptor) | IC50 [1] | IC50 [2] | Ki [2] | IC50 (D(3) dopamine receptor) | IC50 (D(4) dopamine receptor) | IC50 [3] | Ki [3] | IC50 [4]

CCCC(CCC)C(=O)O [VALPROIC ACID]
Not Active: IC50 (B2 bradykinin receptor) | IC50 [1] | IC50 [2] | Ki [2] | IC50 (D(3) dopamine receptor) | IC50 (D(4) dopamine receptor) | IC50 [3] | Ki [3] | IC50 [4]
